# Data taken from US7588752B2, “Antimicrobial peptides” (The University of Melbourne, priority 1997, dated 2009).
# No end group written: not given here.
# Key:
# [1] = test system: Streptococcus mutans Ingbritt; type: cell-based; conditions: RP-HPLC of endo Glu-C digest of TCA-soluble UF whey
# Procedure: Peaks were collected and assayed for antimicrobial activity. Antimicrobial assays were carried out in liquid growth medium using sterile 96 well plates, each well having a capacity of 300 μL. The growth medium consisted of Todd Hewit broth (36.4 g/L), Yeast Extract (5.0 g/L) with 100 mmol/L potassium phosphate buffer. Routinely the pH of the growth medium was adjusted to 6.3. An inoculum of approximately 1.5×10^2 cells (Streptococcus sanguis, Streptococcus mutans, Porphyromonas gingivalis) that had been harvested during the exponential phase of growth, was added to each well. The ionophore gramicidin (40 μmol/L final concentration) was added to a series of wells as a negative control. Positive controls contained only the inoculum and the growth medium. Growth was determined over a 30 hour period after inoculation by measuring the optical density of the cell suspensions at a wavelength of 650 nm (OD650), using a microplate reader (Biorad, model 450). Growth was determined by subtracting the initial reading, taken immediately after inoculation from the final reading (maximum culture OD). […]
# [2] = test system: Streptococcus sanguinis (formerly S. sanguis); experiment: Antibacterial growth assay in liquid medium, 96 well plates, OD 650 nm; type: cell-based; conditions: peaks of tryptic hydrolysate of sodium caseinate
# Procedure: Hydrolysis was terminated by the addition of 1M HCl to pH 4.6. The hydrolysate was centrifuged (11,600 g for 10 min) and then filtered through a 0.2 μm PVDF filter before being applied to a 7 μm C8 (Brownlee) reversed-phase column (4.6×220 mm). The sample was eluted using an Applied Biosystems 140 A Solvent Delivery System to generate a stepwise linear gradient from 0-20% B in 2 min followed by 20-45% B in 40 min at a flow rate of 1 ml/min. Eluant A was 0.1% (v/v) TFA in water and eluant B was 80% (v/v) acetronitrile, 0.1% (v/v) TFA in water. The eluant was monitored using an Applied Biosystems 1000S Diode Array detector at a primary wavelength of 215 nm. Peaks were collected and assayed for antimicrobial activity. […] Growth was determined over a 30 hour period after inoculation by measuring the optical density of the cell suspensions at a wavelength of 650 nm (OD650), using a microplate reader (Biorad, model 450). Growth was determined by subtracting the initial reading, taken immediately after inoculation from the final reading (maximum culture OD). […]
# The antibacterial assay was conducted in sterile 96 well plates (Becton Dickinson, Melbourne, Australia). […] Growth of the bacterium was determined as the difference between the final and initial Optical Density (OD) 650 nm readings using a microplate reader (BIORAD, model 450, NSW, Australia). […]
# Klebsiella pneumoniae = conditions: concentrations as low as 0.1 μM; injected intravenously before lethal infectious challenge; cited from earlier work
# Staphylococuus carnosus = conditions: cited from earlier work
# Escherichia coli = conditions: cited from earlier work
Substance,antimicrobial activity against Streptococcus sanguinis [2],protective effect in mice against Klebsiella pneumoniae infection (Klebsiella pneumoniae),also measured
AVESTVATLEDSPEVIESPPE [Ser(P)^149 κ-casein A (138-158)],–,–,antimicrobial activity against S. mutans [1]: exhibited antimicrobial activity
DMPIQAFLLYQQPVLGPVR (bovine) [β-casein (184-202)],showed activity,–,–
"PGPIPN (bovine) [β-casein (63-68), casein peptide of Migliore-Samour et al. (1989)]",–,significant protective effect,–
"Ser(P)^149 κ-casein (117-169): tryptic casein peptide, genetic variant not specified ((SEQ ID NO:12) and (SEQ ID NO:14))",showed activity,–,–
"TTMPLW (bovine) [αs1-casein (194-199), casein peptide of Migliore-Samour et al. (1989)]",–,significant protective effect,–
"αs2-casein (fl72-203): antibacterial peptide from bovine αs2-casein released by treating milk with glacial acetic acid (Zucht et al., 1995) (QKFALPQYLKTVYQHQKAMKPWIQPKTKVIPY; UniProt P02663 187-218, looked up, fragment)",–,–,inhibition of growth of Staphylococuus carnosus (Staphylococuus carnosus): inhibit the growth; inhibition of growth of Escherichia coli (Escherichia coli): inhibit the growth
